In patent US9108957B2 (MITSUBISHI TANABE PHARMA CORPORATION, priority 2009, dated 2015):
Where a name gives a salt, the structure may show the parent alone.

The molecules below were run against human recombinant TPK1 (Homo sapiens, UniProt P49841) (assay: Inhibitory activity against P-GS1 phosphorylation by TPK1 (Kinase Glo luminescence)). Conditions: 7.5 μM P-GS1, 10 μM ATP, 25° C. for 16 hours, Kinase Glo Reagent luminescent signal.
Assay type: biochemical
Procedure: Inhibitory Activity of the Medicament of the Present Invention Against P-GS1 Phosphorylation by Bovine Cerebral TPK1
A mixture containing 100 mM HEPES-sodium hydroxide (pH 7.2), 1 mM magnesium acetate, 1 mM EGTA, 1 mM dithiothreitol (DTT), 0.02% Tween 20, 7.5 μM P-GS1, 10 μM ATP, human recombinant TPK1 and a compound shown in Table (a final mixture contained 1% DMSO deriving from a solution of a test compound prepared in the presence of 10% DMSO) was used as a reaction system. The phosphorylation was started by adding ATP, and the reaction was conducted at 25° C. for 16 hours. Then equal volume of Kinase Glo Reagent (Promega) was added to the mixture and luminescent signal from the mixture was measured. IC50 for each compound was calculated by setting the data of mixture without enzyme as 0% activity and that without compound as 100% activity.

human recombinant TPK1, sequence (P49841 whole entry): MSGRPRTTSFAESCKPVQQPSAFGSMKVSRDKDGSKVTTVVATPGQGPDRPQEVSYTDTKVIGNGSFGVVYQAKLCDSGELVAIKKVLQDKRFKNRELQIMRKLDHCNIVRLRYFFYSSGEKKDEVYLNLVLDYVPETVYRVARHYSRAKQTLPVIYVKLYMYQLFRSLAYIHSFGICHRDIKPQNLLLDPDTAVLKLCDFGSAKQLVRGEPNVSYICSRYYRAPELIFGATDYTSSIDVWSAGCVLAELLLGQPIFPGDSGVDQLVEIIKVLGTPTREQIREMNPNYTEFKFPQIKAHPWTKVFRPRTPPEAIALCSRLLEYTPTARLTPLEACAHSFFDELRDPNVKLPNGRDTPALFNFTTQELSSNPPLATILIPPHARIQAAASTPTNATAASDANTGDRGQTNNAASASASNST

SMILES	IC50
Cc1noc(-c2ccc(C3CCN(c4nc(-c5ccncn5)cc(=O)n4C)CCO3)cc2)n1 (single isomer, unassigned; (+)) [Compound A103, (+)-2-[7-[4-(3-methyl-1,2,4-oxadiazol-5-yl)-phenyl]-1,4-oxazepan-4-yl]-3-methyl-6-(pyrimidin-4-yl)pyrimidin-4(3H)-one]	16.3 nM
Cn1c(N2CCCO[C@H](c3ccc(F)cc3)C2)nc(-c2ccncc2)cc1=O [Compound A057, (R)-2-(2-(4-fluorophenyl)-1,4-oxazepan-4-yl)-3-methyl-6-(pyridin-4-yl)pyrimidin-4(3H)-one]	207 nM
CC1CN(c2nc(-c3ccncn3)cc(=O)n2C)CCCO1 (stereo not drawn) [Compound A051, 2-(2-methyl-1,4-oxazepan-4-yl)-3-methyl-6-(pyrimidin-4-yl)pyrimidin-4(3H)-one]	80.3 nM
Cn1c(N2CCCN(c3ccc(F)cc3)CC2)nc(-c2ccncc2F)cc1=O [Compound A003, 2-[4-(4-fluorophenyl)-1,4-diazepan-1-yl]-6-(3-fluoropyridin-4-yl)-3-methylpyrimidin-4(3H)-one]	18.4 nM
Cn1c(N2CCOC(c3ccc(F)cc3)CC2)nc(-c2ccncn2)cc1=O (stereo not drawn) [Compound A098, 2-[7-(4-fluorophenyl)-1,4-oxazepan-4-yl]-3-methyl-6-(pyrimidin-4-yl)pyrimidin-4(3H)-one]	13.8 nM
Cn1c(N2CCCO[C@H](c3ccc(Br)cc3)C2)nc(-c2ccncn2)cc1=O [Compound A058, (R)-2-(2-(4-bromophenyl)-1,4-oxazepan-4-yl)-3-methyl-6-(pyrimidin-4-yl)pyrimidin-4(3H)-one]	221 nM
Cn1c(N2CCOCCC2c2ccccc2)nc(-c2ccncn2)cc1=O (stereo not drawn) [Compound A071, 3-methyl-2-(5-phenyl-1,4-oxazepan-4-yl)-6-(pyrimidin-4-yl)pyrimidin-4(3H)-one]	41 nM
Cn1c(N2CCCO[C@@H](c3ccc(C(N)=O)cc3)C2)nc(-c2ccncn2)cc1=O [Compound A018]	11 nM
Cn1c(N2CCOCC(c3ccc(-c4ncon4)cc3)C2)nc(-c2ccncn2)cc1=O (stereo not drawn) [Compound A082, 2-[6-[4-(1,2,4-oxadiazol-3-yl)-phenyl]-1,4-oxazepan-4-yl]-3-methyl-6-(pyrimidin-4-yl)-pyrimidin-4(3H)-one]	13.2 nM
Cn1c(N2CCCOC(c3ccc(F)cc3)C2)nc(-c2ccncc2)cc1=O (stereo not drawn) [Compound A035, 2-[2-(4-fluorophenyl)-1,4-oxazepan-4-yl]-3-methyl-6-(pyridin-4-yl)pyrimidin-4(3H)-one hydrochloride]	27 nM
Cn1c(N2CCCOCC2)nc(-c2ccncn2)cc1=O [Compound A002, 2-(1,4-oxazepan-4-yl)-3-methyl-6-(pyrimidin-4-yl)pyrimidin-4(3H)-one]	232 nM
COc1cccc(C2CCN(c3nc(-c4ccncn4)cc(=O)n3C)CCO2)c1 (stereo not drawn) [Compound A101, 2-[7-(3-methoxyphenyl)-1,4-oxazepan-4-yl]-3-methyl-6-(pyrimidin-4-yl)pyrimidin-4(3H)-one]	15.3 nM
COc1cccc(C2CCN(c3nc(-c4ccncc4F)cc(=O)n3C)CCO2)c1 (stereo not drawn) [Compound A093, 2-[7-(3-methoxyphenyl)-1,4-oxazepan-4-yl]-6-(3-fluoropyridin-4-yl)-3-methylpyrimidin-4(3H)-one]	9.65 nM
Cn1c(N2CCCO[C@@H](c3ccc(Br)cc3)C2)nc(-c2ccncn2)cc1=O [Compound A009, (S)-2-[2-(4-bromophenyl)-1,4-oxazepan-4-yl]-3-methyl-6-(pyrimidin-4-yl)pyrimidin-4(3H)-one]	5.2 nM
Cn1c(N2CCOC(c3cccc(F)c3)CC2)nc(-c2ccncn2)cc1=O (stereo not drawn) [Compound A106, 2-[7-(3-fluorophenyl)-1,4-oxazepan-4-yl]-3-methyl-6-(pyrimidin-4-yl)pyrimidin-4(3H)-one]	20.5 nM
Cn1c(N2CCCO[C@@H](c3ccc(C#N)cc3)C2)nc(-c2ccncn2)cc1=O [Compound A028, (S)-2-[2-(4-cyanophenyl)-1,4-oxazepan-4-yl]-3-methyl-6-(pyrimidin-4-yl)pyrimidin-4(3H)-one]	17.6 nM
COc1cccc(C2CCN(c3nc(-c4ccncc4)cc(=O)n3C)CCO2)c1 (stereo not drawn) [Compound A109, 2-[7-(3-methoxyphenyl)-1,4-oxazepan-4-yl]-3-methyl-6-(pyridin-4-yl)pyrimidin-4(3H)-one]	28 nM
COc1ccc(C2CCN(c3nc(-c4ccncc4)cc(=O)n3C)CCO2)cc1 (stereo not drawn) [Compound A118, 2-(7-(4-methoxyphenyl)-1,4-oxazepan-4-yl)-3-methyl-6-(pyridin-4-yl)pyrimidin-4(3H)-one]	58.6 nM
Cn1c(N2CCCO[C@@H](c3ccc(C#N)cc3)C2)nc(-c2ccncc2)cc1=O [Compound A037, (S)-2-(2-(4-cyanophenyl)-1,4-oxazepan-4-yl)-3-methyl-6-(pyridin-4-yl)pyrimidin-4(3H)-one]	30.8 nM
Cn1c(N2CCCO[C@@H](c3cccc(C#N)c3)C2)nc(-c2ccncc2)cc1=O [Compound A046, (S)-2-[2-(3-cyanophenyl)-1,4-oxazepan-4-yl]-3-methyl-6-(pyridin-4-yl)pyrimidin-4(3H)-one]	61.5 nM
Cn1c(N2CCCO[C@H](c3cccc(C(N)=O)c3)C2)nc(-c2ccncn2)cc1=O [Compound A049, (R)-2-[2-(3-aminocarbonylphenyl)-1,4-oxazepan-4-yl]-3-methyl-6-(pyrimidin-4-yl)pyrimidin-4(3H)-one]	70.6 nM
COc1ccccc1C1CCN(c2nc(-c3ccncc3F)cc(=O)n2C)CCO1 (stereo not drawn) [Compound A094, 2-[7-(2-methoxyphenyl)-1,4-oxazepan-4-yl]-6-(3-fluoropyridin-4-yl)-3-methylpyrimidin-4(3H)-one]	10.3 nM

Second part, the molecule after the results:

IC50	SMILES
164 nM	Cc1nc(-c2cccc([C@@H]3CN(c4nc(-c5ccncc5F)cc(=O)n4C)CCCO3)c2)no1 [Compound A055]
17.2 nM	Cn1c(N2CCOC(c3ccc(-c4ncon4)cc3)CC2)nc(-c2ccncc2F)cc1=O (single isomer, unassigned; (-)) [Compound A104, (−)-2-[7-[4-(1,2,4-oxadiazol-3-yl)-phenyl]-1,4-oxazepan-4-yl]-6-(3-fluoropyridin-4-yl)-3-methylpyrimidin-4(3H)-one]
6 nM	Cn1c(N2CCCO[C@@H](c3ccc(F)cc3)C2)nc(-c2ccncc2F)cc1=O [Compound A011, (S)-2-[2-(4-fluorophenyl)-1,4-oxazepan-4-yl]-6-(3-fluoropyridin-4-yl)-3-methylpyrimidin-4(3H)-one]
3.5 nM	Cn1c(N2CCCO[C@@H](c3ccc(C(N)=O)cc3)C2)nc(-c2ccncc2F)cc1=O [Compound A007, (S)-2-[2-(4-aminocarbonylphenyl)-1,4-oxazepan-4-yl]-6-(3-fluoropyridin-4-yl)-3-methylpyrimidin-4(3H)-one]
30.9 nM	Cn1c(N2CCCO[C@H](c3ccc(C(N)=O)cc3)C2)nc(-c2ccncc2F)cc1=O [Compound A038, (R)-2-[2-(4-aminocarbonylphenyl)-1,4-oxazepan-4-yl]-6-(3-fluoropyridin-4-yl)-3-methylpyrimidin-4(3H)-one]
2.3 nM	Cn1c(N2CCCOC(c3ccccc3)C2)nc(-c2ccncc2F)cc1=O (stereo not drawn) [Compound A006, 2-(2-phenyl-1,4-oxazepan-4-yl)-6-(3-fluoropyridin-4-yl)-3-methylpyrimidin-4(3H)-one]
14 nM	Cc1nc(-c2ccc(C3COCCN(c4nc(-c5ccncc5F)cc(=O)n4C)C3)cc2)no1 (stereo not drawn) [Compound A083, 2-[6-[4-(5-methyl-1,2,4-oxadiazol-3-yl)-phenyl]-1,4-oxazepan-4-yl]-6-(3 fluoropyridin-4-yl)-3-methylpyrimidin-4(3H)-one]
28.7 nM	Cc1noc(-c2ccc([C@H]3CN(c4nc(-c5ccncc5)cc(=O)n4C)CCCO3)cc2)n1 [Compound A036, (S)-2-[2-[4-(3-methyl-1,2,4-oxadiazol-5-yl)-phenyl]-1,4-oxazepan-4-yl]-3-methyl-6-(pyridin-4-yl)pyrimidin-4(3H)-one]
16.7 nM	Cc1nc(-c2ccc([C@@H]3COCCN(c4nc(-c5ccncn5)cc(=O)n4C)C3)cc2)no1 [Compound A085, (S)-2-[6-[4-(5-methyl-1,2,4-oxadiazol-3-yl)-phenyl]-1,4-oxazepan-4-yl]-3-methyl-6-(pyrimidin-4-yl)pyrimidin-4(3H)-one]
21.6 nM	Cc1noc(-c2cccc([C@H]3CN(c4nc(-c5ccncc5F)cc(=O)n4C)CCCO3)c2)n1 [Compound A032, (S)-2-[2-[3-(3-methyl-1,2,4-oxadiazol-5-yl)-phenyl]-1,4-oxazepan-4-yl]-6-(3-fluoropyridin-4-yl)-3-methylpyrimidin-4(3H)-one]
13.7 nM	Cn1c(N2CCCO[C@H](c3cccc(Br)c3)C2)nc(-c2ccncc2F)cc1=O [Compound A025, (R)-2-[2-(3-bromophenyl)-1,4-oxazepan-4-yl]-6-(3-fluoropyridin-4-yl)-3-methylpyrimidin-4(3H)-one]
241 nM	Cc1noc(-c2cccc([C@@H]3CN(c4nc(-c5ccncc5F)cc(=O)n4C)CCCO3)c2)n1 [Compound A059, (R)-2-[2-[3-(3-methyl-1,2,4-oxadiazol-5-yl)-phenyl]-1,4-oxazepan-4-yl]-6-(3-fluoropyridin-4-yl)-3-methylpyrimidin-4(3H)-one]
6.7 nM	Cn1c(N2CCCO[C@@H](c3cccc(C(N)=O)c3)C2)nc(-c2ccncc2F)cc1=O [Compound A012]
92.1 nM	Cc1nc(-c2ccc([C@@H]3CN(c4nc(-c5ccncc5F)cc(=O)n4C)CCCO3)cc2)no1 [Compound A052, (R)-2-[2-[4-(5-methyl-1,2,4-oxadiazol-3-yl)-phenyl]-1,4-oxazepan-4-yl]-6-(3-fluoropyridin-4-yl)-3-methylpyrimidin-4(3H)-one]
